Measurements taken from PubChem BioAssay (NCI).
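48-hour exposure; five concentrations; linearly interpolated endpoints. Definition used: TGI = concentration required for complete inhibition of growth.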

How the values were obtained:
Experiment in all cases: NCI anticancer screen, dose series, 48 h
786-0 renal = test system: 786-0 renal
A549 NSCLC = test system: A549 NSCLC
ACHN renal = test system: ACHN renal
CAKI-1 renal = test system: CAKI-1 renal
CCRF-CEM leukemia = test system: CCRF-CEM leukemia
COLO 205 colon = test system: COLO 205 colon
DLD-1 colon = test system: DLD-1 colon
DMS 273 small cell lung = test system: DMS 273 small cell lung
EKVX NSCLC = test system: EKVX NSCLC
HCT-116 colon = test system: HCT-116 colon
HCT-15 colon = test system: HCT-15 colon
HL-60(TB) leukemia = test system: HL-60(TB) leukemia
HOP-18 NSCLC = test system: HOP-18 NSCLC
HOP-62 NSCLC = test system: HOP-62 NSCLC
HOP-92 NSCLC = test system: HOP-92 NSCLC
HT29 colon = test system: HT29 colon
IGROV1 ovarian = test system: IGROV1 ovarian
K-562 leukemia = test system: K-562 leukemia
KM20L2 colon = test system: KM20L2 colon
LOX IMVI melanoma = test system: LOX IMVI melanoma
M14 melanoma = test system: M14 melanoma
M19-MEL melanoma = test system: M19-MEL melanoma
MALME-3M melanoma = test system: MALME-3M melanoma
MOLT-4 leukemia = test system: MOLT-4 leukemia
NCI-H23 lung = test system: NCI-H23 lung
NCI-H460 lung = test system: NCI-H460 lung
OVCAR-3 ovarian = test system: OVCAR-3 ovarian
OVCAR-4 ovarian = test system: OVCAR-4 ovarian
OVCAR-5 ovarian = test system: OVCAR-5 ovarian
OVCAR-8 ovarian = test system: OVCAR-8 ovarian
RPMI-8226 leukemia = test system: RPMI-8226 leukemia
RXF 393 renal = test system: RXF 393 renal
RXF-631 renal = test system: RXF-631 renal
SF-295 CNS = test system: SF-295 CNS
SK-MEL-28 melanoma = test system: SK-MEL-28 melanoma
SK-MEL-5 melanoma = test system: SK-MEL-5 melanoma
SK-OV-3 ovarian = test system: SK-OV-3 ovarian
SN12C renal = test system: SN12C renal
SNB-19 CNS = test system: SNB-19 CNS
SNB-75 CNS = test system: SNB-75 CNS
SNB-78 CNS = test system: SNB-78 CNS
SW-620 colon = test system: SW-620 colon
TK-10 renal = test system: TK-10 renal
U251 CNS = test system: U251 CNS
UACC-257 melanoma = test system: UACC-257 melanoma
UACC-62 melanoma = test system: UACC-62 melanoma
UO-31 renal = test system: UO-31 renal
XF 498 CNS = test system: XF 498 CNS

With `COc1ccc(C2=C(Cl)c3cc(OC)c(OC)cc3C2Cl)cc1OC` (stereo not drawn) the TGI (786-0 renal) was 41.5 µM, the TGI (A549 NSCLC) was 42 µM and the TGI (ACHN renal) was 38.3 µM. For the same compound, the TGI (CAKI-1 renal) was 35.2 µM, the TGI (CCRF-CEM leukemia) was 28.9 µM and the TGI (COLO 205 colon) was 32.5 µM. The TGI (DLD-1 colon) was 34.9 µM, the TGI (DMS 273 small cell lung) was 30.4 µM and the TGI (EKVX NSCLC) was 50.5 µM. For the same compound, the TGI (HCT-116 colon) was 30.3 µM, the TGI (HCT-15 colon) was 55.6 µM and the TGI (HL-60(TB) leukemia) was 35.3 µM. The TGI (HOP-18 NSCLC) was 55.6 µM, the TGI (HOP-62 NSCLC) was 36.6 µM and the TGI (HOP-92 NSCLC) was 46.1 µM. It also gave a TGI (HT29 colon) of 29.8 µM, a TGI (IGROV1 ovarian) of 44.2 µM and a TGI (K-562 leukemia) of 48.6 µM. For the same compound, the TGI (KM20L2 colon) was 29.5 µM, the TGI (LOX IMVI melanoma) was 31.1 µM and the TGI (M14 melanoma) was 34.9 µM. For the same compound, the TGI (M19-MEL melanoma) was 31.7 µM, the TGI (MALME-3M melanoma) was 40.6 µM and the TGI (MOLT-4 leukemia) was 15.4 µM. The TGI (NCI-H23 lung) was 38.2 µM, the TGI (NCI-H460 lung) was 34.8 µM and the TGI (OVCAR-3 ovarian) was 28.4 µM. It also gave a TGI (OVCAR-4 ovarian) of 47.5 µM, a TGI (OVCAR-5 ovarian) of 30.2 µM and a TGI (OVCAR-8 ovarian) of 39 µM. For the same compound, the TGI (RPMI-8226 leukemia) was 27.7 µM, the TGI (RXF 393 renal) was 35.3 µM and the TGI (RXF-631 renal) was 44.4 µM. For the same compound, the TGI (SF-295 CNS) was 33.8 µM, the TGI (SK-MEL-28 melanoma) was 34.5 µM and the TGI (SK-MEL-5 melanoma) was 28.5 µM. For the same compound, the TGI (SK-OV-3 ovarian) was 53.9 µM, the TGI (SN12C renal) was 38.4 µM and the TGI (SNB-19 CNS) was 32.1 µM. The TGI (SNB-75 CNS) was 33.4 µM, the TGI (SNB-78 CNS) was 75.5 µM and the TGI (SW-620 colon) was 34.5 µM. For the same compound, the TGI (TK-10 renal) was 46.3 µM, the TGI (U251 CNS) was 29 µM and the TGI (UACC-257 melanoma) was 32 µM. It also gave a TGI (UACC-62 melanoma) of 31 µM, a TGI (UO-31 renal) of 31.3 µM and a TGI (XF 498 CNS) of 29.4 µM.
